Data as given in US11596626B2, “Compound for use against pathogenic Neisseria and Haemophilus species and Moraxella catarrhalis” (priority 2017, dated 2023).

How the values were obtained:
MS74 cells = test: Microscopic evaluation of treated cells; format: cell-based, human; conditions: up to 50 μM, 2 days, FIG. 14
Source text: FIG. 14: Microscopic evaluation of MS74 cells treated for two days with the indicated concentrations of NQNO compared to DMSO control.

Commensal Neisseria = test: Growth inhibition by area under the growth curve relative to solvent; format: cell-based; conditions: 5-50 μM, FIG. 5
Protocol: (§1) Before every experiment, bacteria were pre-cultured in 5 ml liquid medium for at least 2 hours then harvested and resuspended in PBS (phosphate buffered saline). Optical density (OD) was determined and a volume equal to an OD of 0.2 was inoculated into 5 ml of the respective medium. NQNO was added at the indicated amounts (5-50 μM). DMSO level was adjusted to 1% of final concentration. Samples were incubated for either 10.5 hours, until they reached stationary phase (three measured values in stationary phase) or until they reached an OD of 2.5. Optical density was determined every 0.5 h.
Growth experiments with the compounds represented by the Formulas (4) to (7) were conducted against various bacteria, including clinical isolates of N. gonorrhoeae including high priority 3rd generation cephalosporin/fluoroquinolone-resistant strains, strains isolated from disseminated disease settings, and commensal Neisseria and other commensal bacteria and evaluated (FIGS. 5 and 11). Growth of the indicated bacteria was measured as described in Example 1. Growth inhibition was quantified by measuring the “area under the curve” in the presence of the indicated concentrations of the respective compound (5-50 μM) relative to growth in the presence of the solvent only. Black areas indicate growth inhibition with <30% growth compared to control.

[1] = Stability in deuterated methanol by proton NMR; format: physicochemical; conditions: 25 mM in deuterated methanol, 25° C. or 37° C., 28 days
Protocol: Two samples of NQNO were dissolved in deuterated methanol (CD3OD) to reach a final concentration of 25 mM. Samples were kept at 25° C. or 37° C. for 28 days and proton NMR spectra were measured with the same acquisition parameters every week and the spectra compared with the ones from day 0.

HeLa cells = test: MTT assay of metabolic activity (cytotoxicity); format: cell-based, human
Protocol: HeLa cells in 24-well plate were incubated for 24 h with concentrations of 0.5 to 10 μM NQNO or solvent (DMSO) as a control. Metabolic activity as a measure of mitochondrial respiration was recorded using 3-(4,5-Dimethylthiazol-2-yl)-2,5-diphenyltetrazoliumbromid (MTT) as reporting agent, Activity was measured with a plate reader at 550 nm, (FIG. 6). Shown are mean values+/S.D. of four replicate wells.
HeLa S3 cells were cultivated in Dulbecco's modified Eagle's medium (DMEM) medium supplemented with 10% fetal calf serum and passaged every 2-3 days. Primary human vaginal epithelial cells (hVEC/MS74) were obtained from A. J. Schaeffer (Feinberg School of Medicine, Northwestern University, Chicago, Ill.) and are derived from vaginal tissue of a post-menopausal person. The cell line was created through immortalization of these cells with human papilloma virus 16, E6 and E7 genes according to literature (N. Rajan et. al., Characterization of an immortalized human vaginal epithelial cell line. J Urol 163, 616-622 (2000)). […]
All plates were coated overnight at 4° C. with 0.1% gelatine in PBS before use. […] 0D550 was measured using a Thermo Fisher Varioskan Flash spectrophotometer.

Neisseria macacae = test: Growth curves in liquid culture (optical density) vs DMSO control; format: cell-based; conditions: 5-50 μM, FIG. 3
Protocol: (§2) Growth experiments with NQNO were conducted against Neisseria gonorrhoeae strain MS11 (Edwards, M., et al., Antigenic analysis of gonococcal pili using monoclonal antibodies, J Exp Med, 1984. 160(6): p. 1782-91) and a multidrug-resistant N. gonorrhoeae isolate from Slovenia (Unemo M, Golparian O, Potočnik M, Jeverica S. Treatment failure of pharyngeal gonorrhoea with internationally recommended first-line ceftriaxone verified in Slovenia, September 2011. Euro Surveill. 2012; 17(25):pii=20200), Neisseria macacae, and Lactobacillus brevis. The bacteria were inoculated in GC (Difco™ GC medium Ref. 228950, BD Becton Dickinson) and PPM broth (15 g/L Proteon Pepton, 1 g/L soluble starch, 5 g/L NaCl, 4 g/L KH2PO4, 1 g/L K2HPO4, pH 7.5) (Neisseriae) or TSB (BBL™ Trypticase Soy Broth Ref 211768, BD Becton Dickinson) (Lactobacillus) supplemented with solvent (DMSO) or the indicated concentrations of NQNO (5-50 04) and their growth at 37° C. was monitored over the course of 10 h by optical density readings in 30 minute intervals.
(§3) Neisseria strains were cultured in PPM medium (15 g/l Proteon Pepton, 1 g/l soluble starch, 5 g/l NaCl, 4 g/l KH2PO4, 1 g/l K2HPO4, pH 7.5) for liquid culture and on GC plates (BD Difco™ GC Medium Base) supplemented with 1% vitamin mix (100 g/l glucose, 10 WI glutamine, 26 g/l L-cystein, 100 mg/l carboxylase, 250 mg/l NAD, 500 μl Fe(NO3)3, 150 mg/l arginine, 3 mg/l thiamine-HCl, 10 mg/l vitamine B12, 13 mg/I p-amino benzoic acid, 1.1 g/l L-cystin, 1 g/l adenine; 500 mg/l uracil, 30 mg/I guanine). […]
as §1, with “NQNO was added at the indicated amounts (5-50 μM). DMSO level was adjusted to 1% of final concentration.” left out

[2] = tested on: Neisseria gonorrhoeae strain MS11; test: as above; format: cell-based
Protocol: as §2, §3
as §1, with “NQNO was added at the indicated amounts (5-50 μM). DMSO level was adjusted to 1% of final concentration.” left out

SMILES: CCCCCCCCCc1cc(=O)c2ccccc2n1O [NQNO, 1-Hydroxy-2-nonylquinolin-4(1H)-one]
- Morphology and overall phenotype of cells (MS74 cells): did not change
- Growth inhibition (area under the curve relative to solvent) (Commensal Neisseria): not compromised
- Stability in solvent [1]: stable at 37 °C in deuterated methanol for at least one month
- Cytotoxicity (metabolic activity, MTT) (HeLa cells; 10 μM, up to 24 h, preliminary experiment, FIG. 6): does not lead to cytotoxicity
- Cytotoxicity (metabolic activity, MTT) (HeLa cells; up to 10 μM, 48 h, FIG. 12): did not exhibit signs of cytotoxicity
- Effect on growth (Neisseria macacae): did not compromise the growth
- Concentration leading to complete abrogation of gonococcal growth in vitro ([2]; N. gonorrhoeae MS11, 37° C., growth monitored over 10 h, FIG. 1): ≤ 5 µM
- Concentration leading to complete abrogation of gonococcal growth in vitro ([2]; N. gonorrhoeae MS11, mass concentration given for 5 μM): < 1.4 µg/mL
